Assay results as given in PMC12298351, “Novel 3,19-(N-Phenyl-3-(4-fluorophenyl)-pyrazole) Acetal of Andrographolide Promotes Cell Cycle Arrest and Apoptosis in MDA-MB-231 Breast Cancer Cells” (Pharmaceuticals, 2025).

How the values were obtained:
[1] = DPPH radical scavenging assay; settings: 25 µM test compound, 0.1 mM DPPH, acetonitrile, 30 min
Protocol: A stable free radical DPPH (2,2-Diphenyl-1-picrylhydrazyl) assay was employed to test the antioxidant activity of all the synthesized compounds. Concisely, 25 µM of the test compounds were dissolved in acetonitrile and combined with 0.1 mM of DPPH (in acetonitrile) in a 1:2 ratio (80 µL and 160 µL). Then, the mixture was left undisturbed in the dark for 30 min at room temperature. After 30 min, the absorbance of the solutions was instantly measured at 517 nm using a Varioskan Multiplate Reader (Thermo Fisher Scientific, Mumbai, India). Ascorbic acid (in acetonitrile) was used as the positive control, and andrographolide and isoandrogapholide (in acetonitrile) were used as the standards. The following equation was used to determine the DPPH radical scavenging activity:% Radical scavenging activity = (Ac − As)/Ac × 100 where Ac = the absorbance of the blank (DPPH solution), and As = the absorbance of the test samples

[2] = system: 60 human cancer cell lines; assay: NCI single-dose study; format: cell-based; settings: single dose 10 µM, all 60 cell lines
Source text: All the synthesized compounds (1a–1j and 2a–2j) were initially assessed for their anticancer potential at the National Cancer Institute (NCI, USA) against a diverse panel of 60 human cancer cell lines, representing nine distinct cancer types including leukemia, non-small-cell lung, colon, CNS, melanoma, ovarian, renal, prostate, and breast. The testing protocol employed by the NCI encompasses two stages: initial assessment at a single dose and subsequent evaluation at five doses.
Initially, a comprehensive anticancer screening of all twenty compounds (1a–1j and 2a–2j), including the parent compounds ADG and ISOADG, was conducted using a 10 µM dose across all 60 cell lines (a standardized protocol followed for the initial assessment of test compounds by the NCI). […] As a result, these ten compounds were chosen for five-dose studies.

| Structure (SMILES) | % DPPH radical scavenging activity [1] [%] | % growth inhibition [2] |
| --- | --- | --- |
| O=C1O[C@H]([C@@H](O)CO)C(O)=C1O [ascorbic acid, reference compound] | 69.26 | – |
| C=C1CC[C@@H]2[C@](C)(CO)[C@H](O)CC[C@@]2(C)[C@@H]1C/C=C1/C(=O)OC[C@H]1O [ADG, andrographolide] | 58.74 | lower % growth inhibition |
| CC12CC[C@@H]3[C@](C)(CO)[C@H](O)CC[C@@]3(C)[C@@H]1CC(C1=CCOC1=O)O2 (some centres unmarked) [ISOADG, isoandrographolide, reference compound] | 57.94 | lower % growth inhibition |
